The source of these data is BindingDB's records for 0.1007/s00044-005-0126-y (University, Mississippi, 2005).

For orientation: IC50 means the concentration that inhibits the measured activity by half. A high value points to lower potency.

In assay [1] the target is T1, Cysteine proteinase falcipain 2a (Plasmodium falciparum, UniProt Q9NBD4).
T1 sequence (Q9NBD4 whole entry): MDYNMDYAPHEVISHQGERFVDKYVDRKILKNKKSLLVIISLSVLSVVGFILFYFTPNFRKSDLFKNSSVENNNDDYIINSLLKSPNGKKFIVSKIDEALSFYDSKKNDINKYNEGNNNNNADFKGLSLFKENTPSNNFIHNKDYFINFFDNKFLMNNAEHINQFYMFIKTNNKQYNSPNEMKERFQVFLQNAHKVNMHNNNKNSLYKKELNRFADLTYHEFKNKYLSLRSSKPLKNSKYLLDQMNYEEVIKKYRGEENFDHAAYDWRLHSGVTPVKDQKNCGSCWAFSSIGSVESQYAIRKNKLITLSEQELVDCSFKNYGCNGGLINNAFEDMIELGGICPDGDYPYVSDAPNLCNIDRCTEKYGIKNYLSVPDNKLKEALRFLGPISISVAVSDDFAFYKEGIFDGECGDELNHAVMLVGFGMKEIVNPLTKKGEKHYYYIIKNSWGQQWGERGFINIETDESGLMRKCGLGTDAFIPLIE
As to the kind of experiment: In Vitro Inhibition Assay. Here is the method:
(§1) In vitro antimalarial assay, antimalarial activity of the compounds was determined in vitro on chloroquine sensitive and resistant strains of plasmodium flaciparum as described earlier.

Assay [2] addresses T2, Cysteine proteinase falcipain 3 (Plasmodium falciparum (isolate 3D7), UniProt Q8IIL0).
T2 sequence (Q8IIL0 whole entry): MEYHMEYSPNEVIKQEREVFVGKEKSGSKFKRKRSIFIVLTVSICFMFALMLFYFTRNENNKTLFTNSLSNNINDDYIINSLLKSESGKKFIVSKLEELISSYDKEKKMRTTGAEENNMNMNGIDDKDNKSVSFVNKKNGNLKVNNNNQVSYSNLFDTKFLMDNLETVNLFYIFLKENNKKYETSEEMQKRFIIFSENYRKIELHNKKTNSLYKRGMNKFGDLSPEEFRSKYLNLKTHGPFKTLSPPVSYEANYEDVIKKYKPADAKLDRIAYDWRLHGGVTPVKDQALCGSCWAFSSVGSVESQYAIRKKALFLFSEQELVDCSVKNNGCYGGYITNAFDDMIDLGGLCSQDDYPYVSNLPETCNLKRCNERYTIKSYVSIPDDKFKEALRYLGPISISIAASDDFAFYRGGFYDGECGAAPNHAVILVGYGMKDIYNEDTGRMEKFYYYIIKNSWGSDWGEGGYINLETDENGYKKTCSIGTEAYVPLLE
As to the kind of experiment: In Vitro Inhibition Assay. Here is the method:
as §1

Where only a bound is given, the exact number is not on record here.

Take `O=C(C=Cc1nc(CCc2ccccc2)c(CCCO)s1)CSCCCc1ccccc1` [Trisubsituted thiazole, 14]: the values for the IC50 in assay [1] and in assay [2] were 6.6 µM and 29.4 µM, respectively.

Take `O=C(CCc1nc(CCc2ccccc2)c(CCCO)s1)CSCCCc1ccccc1` [Trisubsituted thiazole, 15]: the IC50 in assay [1] is over 12.5 µM; in assay [2], over 50 µM.

For the compound `O=CCCc1sc(CCC(=O)CSCCCc2ccccc2)nc1CCc1ccccc1` [Trisubsituted thiazole, 16], the half-maximal inhibitory concentration (IC50) in assay [1] is 39.1 µM; in assay [2], over 50 µM.

Regarding `NC(=O)CCc1sc(CCC(=O)CSCCCc2ccccc2)nc1CCc1ccccc1` [Trisubsituted thiazole, 17], the IC50 was over 33 µM in assay [1] and over 50 µM in assay [2].

On to `CC(=O)NCCCc1sc(CCC(=O)CSCCCc2ccccc2)nc1CCc1ccccc1` [Trisubsituted thiazole, 20], for which the IC50 in assay [1] is over 33 µM; in assay [2] it was over 50 µM.

`NC(=O)CCc1sc(NC(=O)CSCCCc2ccccc2)nc1/C=C/c1ccccc1` [Trisubsituted thiazole, 23] registered an IC50 in assay [1] of 15.3 µM.

Turning to `O=C(CCc1nc(CO)c(CCc2ccccc2)s1)CSCCCc1ccccc1` [Trisubsituted thiazole, 29], the IC50 in assay [1] is over 12.5 µM; in assay [2] it was over 50 µM.

For the compound `CC(=O)OCc1nc(CCC(=O)CSCCCc2ccccc2)sc1CCc1ccccc1` [Trisubsituted thiazole, 30], the results for the IC50 in assay [1] and in assay [2] were over 33 µM and over 50 µM, respectively.
